Reference: paper PMC4134956 (Bioorganic & medicinal chemistry, 2014)
One block for each compound: values may come before it.

How the values were obtained:
[1] = assay type: in vivo, NSG male mouse; details: for preferential tumor localization compared to lung: single injection
[2] = cited from earlier work
[3] = single injection at 10 mg/kg; non-radioactive version; cited from earlier work
[4] = single i.p. injection 20 nmol per animal, 24 hours
[5] = single i.p. injection 20 nmol, 7 days

mean tumor and host tissue values compared with compound 1 ([1]; 24 hours, differently placed C-14 label): within experimental error | preferential tumor localization compared to lung ([1]; 24 hours): up to 12 fold
SMILES: C[14C](=O)N[C@H](CCNC(=O)c1cc(NC(=O)c2cc(NC(=O)c3cc(NC(=O)c4nccn4C)cn3C)cn2C)cn1C)C(=O)Nc1cn(C)c(C(=O)Nc2cc(C(=O)Nc3cc(C(=O)Nc4cc(C(=O)NCCCN(C)CCCNC(=O)c5cccc(C(=O)O)c5)n(C)c4)n(C)c3)n(C)c2)n1 [compound 2]

SMILES: COc1cccc2c1C(=O)c1c(O)c3c(c(O)c1C2=O)C[C@@](O)(C(=O)CO)C[C@@H]3O[C@H]1C[C@H](N)[C@H](O)[C@H](C)O1 [doxorubicin]
liver levels higher than MCF7 xenograft levels ([2]; 2 hour timepoint): ~2 fold | tumor localization value ([2]; MCF7 xenograft, i.p. 1.6 mg/kg, up to 24 hours after single injection): about 1 mg/kg

mean tumor concentration, multiple injection experiment ([1]; 3 injections days 1, 4, 7, 20 nmol i.p. each, harvest 24 h after last): 3.49 mg/kg | accumulation upon repeated injection in tumor and organs assessed ([1]; 3 injections over 7 days): Some twofold accumulation | enrichment in the tumor over all host tissues probed ([1]; 4 hour time point): some two-fold enrichment | liver concentration lower than that in tumors ([1]; 24 hours, p < 0.01): 29% | preferential tumor localization compared to lung ([1]; 24 hours): up to 12 fold | mean tumor-associated concentration ([1]; LNCaP tumor, single i.p. injection 20 nmol per animal, harvest 24 hours): 1.48 mg/kg | lung concentration [1, 4]: 0.12 mg/kg | kidney tissue level [1, 5]: 0.05 mg/kg | lung tissue level [1, 5]: 0.06 mg/kg | tumor tissue level [1, 5]: 0.45 mg/kg
SMILES: CC(=O)N[C@H](CCNC(=O)c1cc(NC(=O)c2cc(NC(=O)c3cc(NC(=O)c4nccn4C)cn3C)cn2C)cn1C)C(=O)Nc1cn(C)c(C(=O)Nc2cc(C(=O)Nc3cc(C(=O)Nc4cc(C(=O)NCCCN(C)CCCN[14C](=O)c5cccc([14C](=O)O)c5)n(C)c4)n(C)c3)n(C)c2)n1 [compound 1, ImPyPyPy-(R)^α-NHAcγ-ImPyPyPy]
liver toxicity [3]: not 1

lung levels relative to compound 1 ([1]; 24 hours): almost eightfold higher | tumor-associated levels compared with compound 1 ([1]; 24 hours): within error | host tissue levels compared with compound 1 ([1]; 24 hours, kidney, liver, lung): substantially higher levels | lung concentration [1, 4]: 0.93 mg/kg
SMILES: CN(CCCNC(=O)c1cc(NC(=O)c2cc(NC(=O)c3cc(NC(=O)c4nc(NC(=O)[C@H](N)CCNC(=O)c5cc(NC(=O)c6cc(NC(=O)c7cc(NC(=O)c8nccn8C)cn7C)cn6C)cn5C)cn4C)cn3C)cn2C)cn1C)CCCN[14C](=O)c1cccc([14C](=O)O)c1 [compound 3]
liver toxicity [3]: resulted in liver toxicity
